EPA's ToxRefDB 2

Columns and labels:
mouse [1] = settings: Carcinogenicity, b6c3f1, Oral, Gavage/Intubation, dose end: 2 year, group: systemic
mouse [2] = settings: Prenatal developmental toxicity study, swiss albino, Oral, Gavage/Intubation, dose end: 15 GD
mouse [3] = settings: Other (NonGuideline or Guideline Not Listed), cd1, Oral, Gavage/Intubation, dose end: 2 year, group: cannot be grouped
mouse [4] = settings: Subchronic oral toxicity in rodents, b6c3f1, Gavage/Intubation, dose end: 14 week, group: systemic
mouse [5] = settings: Multigenerational reproductive toxicity study, cd1, Oral, Gavage/Intubation, dose end: 2 generation
mouse [6] = settings: Multigenerational reproductive toxicity study, cd1, Oral, Gavage/Intubation, dose end: 1 generation
mouse [7] = settings: Subchronic oral toxicity in rodents, b6c3f1, Gavage/Intubation, dose end: 94 day, group: systemic, systemic / hematology / erythrocyte (rbc) count differential / erythrocyte (rbc) + systemic / hematology / hematocrit (hct) / hematocrit (…
mouse [8] = settings: Prenatal developmental toxicity study, cd1, Oral, Gavage/Intubation, dose end: 16 GD, group: developmental
rat [9] = settings: Subchronic oral toxicity in rodents, fischer, Gavage/Intubation, dose end: 13 week, group: systemic, systemic / in life observation / clinical signs / lethargy + systemic / in life observation / mortality / mortality
mouse [10] = settings: Subchronic oral toxicity in rodents, b6c3f1, Gavage/Intubation, dose end: 13 week, group: systemic
rat [11] = settings: Carcinogenicity, fischer, Oral, Gavage/Intubation, dose end: 103 week, group: systemic
rat [12] = settings: Sub-acute repeat dose toxicity, fischer, Oral, Gavage/Intubation, dose end: 16 day, group: systemic
mouse [13] = settings: Sub-acute repeat dose toxicity, b6c3f1, Oral, Gavage/Intubation, dose end: 16 day, group: systemic
mouse [14] = settings: Carcinogenicity; b6c3f1; Oral; Gavage/Intubation; dose end: 103 week; group: systemic; systemic / pathology microscopic / kidney / inflammation + systemic / pathology microscopic / liver / cytomegaly + systemic / pathology …
[15] = systemic / hematology / erythrocyte (rbc) count differential / erythrocyte (rbc) + systemic / hematology / mean corpuscular (cell) volume (…
[16] = group: developmental, systemic / in life observation / body weight / fetal weight
[17] = group: maternal, systemic / in life observation / food consumption / food consumption
[18] = reproductive / reproductive performance / fertility / fertility + reproductive / offspring survival early / litter size / litter size + …
[19] = systemic / hematology / erythrocyte (rbc) count differential / erythrocyte (rbc) + systemic / hematology / hematocrit (hct) / hematocrit (…
[20] = group: offspring, systemic / in life observation / body weight / offspring (pup) weight
[21] = group: parental, systemic / in life observation / body weight / body weight + systemic / in life observation / body weight / dam weight + systemic / …
[22] = group: parental, systemic / in life observation / body weight / body weight + systemic / pathology gross / sperm measure / sperm morphology + systemic / …
[23] = group: reproductive, reproductive / offspring survival early / live fetuses / live fetuses
[24] = group: reproductive, reproductive / reproductive performance / reproductive performance other / NOS + reproductive / reproductive performance / gestational …
[25] = group: parental, systemic / hematology / leukocyte (wbc) count differential / leukocyte (wbc) + systemic / hematology / mean corpuscular (cell) volume (mcv…
[26] = group: parental, systemic / hematology / mean corpuscular (cell) volume (mcv) / mean corpuscular (cell) volume (mcv) + systemic / hematology / mean …
[27] = group: reproductive, reproductive / reproductive performance / pregnancy / pregnancy + reproductive / reproductive performance / resorptions / resorptions + …
[28] = developmental / developmental malformation / bone / supernumerary + systemic / in life observation / body weight / fetal weight
[29] = systemic / in life observation / body weight / fetal weight
[30] = systemic / in life observation / mortality / mortality
[31] = systemic / in life observation / mortality / mortality + systemic / in life observation / body weight / body weight
[32] = systemic / pathology microscopic / kidney / hyperplasia + systemic / pathology microscopic / kidney / mineralization
[33] = systemic / pathology microscopic / kidney / hyperplasia + systemic / pathology microscopic / kidney / mineralization + systemic / pathology …
[34] = systemic / in life observation / body weight / body weight
[35] = systemic / in life observation / clinical signs / lethargy
[36] = systemic / in life observation / body weight / body weight + systemic / in life observation / clinical signs / abnormal movements + systemic…

Cc1cn([C@H]2C[C@H](N=[N+]=[N-])[C@@H](CO)O2)c(=O)[nH]c1=O [3'-Azido-3'-deoxythymidine]
LEL (mouse [1]; [15]): 30 mg/kg/day | NEL (mouse [1]; [15]): < 30 mg/kg/day | LOAEL (mouse [1]; systemic / pathology microscopic / vagina / hyperplasia): 120 mg/kg/day | NOAEL (mouse [1]; systemic / pathology microscopic / vagina / hyperplasia + systemic / pathology microscopic / liver / adenoma/carcinoma combined + systemic…): 60 mg/kg/day | LEL (mouse [2]; [16]): 100 mg/kg/day | LOAEL (mouse [2]; [16]): > 400 mg/kg/day | NEL (mouse [2]; [16]): < 100 mg/kg/day | NOAEL (mouse [2]; [16]): ≥ 400 mg/kg/day | LEL (mouse [2]; [17]): 400 mg/kg/day | LOAEL (mouse [2]; [17]): > 400 mg/kg/day | NEL (mouse [2]; [17]): 200 mg/kg/day | NOAEL (mouse [2]; [17]): ≥ 400 mg/kg/day | NEL (mouse [3]; reproductive / reproductive performance / fertility / fertility): 100 mg/kg/day | LEL (mouse [3]; [18]): 200 mg/kg/day | LOAEL (mouse [3]; [18]): > 300 mg/kg/day | NOAEL (mouse [3]; [18]): ≥ 300 mg/kg/day | LEL (mouse [4]; [19]): 50 mg/kg/day | NEL (mouse [4]; [19]): < 50 mg/kg/day | LOAEL (mouse [4]; systemic / in life observation / body weight / body weight gain + systemic / pathology microscopic / bone marrow / atrophy): 800 mg/kg/day | NOAEL (mouse [4]; systemic / in life observation / body weight / body weight gain + systemic / pathology microscopic / bone marrow / atrophy + systemic / …): 200 mg/kg/day | LEL (mouse [5]; [20]): 200 mg/kg/day | LOAEL (mouse [5]; [20]): > 200 mg/kg/day | NEL (mouse [5]; [20]): 100 mg/kg/day | NOAEL (mouse [5]; [20]): ≥ 200 mg/kg/day | LOAEL (mouse [5]; [21]): > 200 mg/kg/day | NOAEL (mouse [5]; [21]): ≥ 200 mg/kg/day | LEL (mouse [5]; [22]): 50 mg/kg/day | NEL (mouse [5]; [22]): < 50 mg/kg/day | LEL (mouse [5]; [23]): 50 mg/kg/day | NEL (mouse [5]; [23]): < 50 mg/kg/day | LOAEL (mouse [5]; [24]): > 200 mg/kg/day | NOAEL (mouse [5]; [24]): ≥ 200 mg/kg/day | LOAEL (mouse [6]; [25]): > 400 mg/kg/day | NOAEL (mouse [6]; [25]): ≥ 400 mg/kg/day | LEL (mouse [6]; [26]): 100 mg/kg/day | NEL (mouse [6]; [26]): < 100 mg/kg/day | LEL (mouse [6]; group: reproductive, reproductive / reproductive performance / pregnancy / pregnancy): 200 mg/kg/day | NEL (mouse [6]; group: reproductive, reproductive / reproductive performance / pregnancy / pregnancy + reproductive / reproductive performance / resorptions / resorptions): 100 mg/kg/day | LOAEL (mouse [6]; [27]): > 400 mg/kg/day | NOAEL (mouse [6]; [27]): ≥ 400 mg/kg/day | LEL (mouse [7]): 100 mg/kg/day | LOAEL (mouse [7]): > 400 mg/kg/day | NEL (mouse [7]): < 100 mg/kg/day | NOAEL (mouse [7]): ≥ 400 mg/kg/day | LOAEL (mouse [8]; [28]): > 400 mg/kg/day | NOAEL (mouse [8]; [28]): ≥ 400 mg/kg/day | LEL (mouse [8]; [29]): 100 mg/kg/day | NEL (mouse [8]; [29]): < 100 mg/kg/day

CC1=CC(=O)CC(C)(C)C1 [Isophorone]
LEL (rat [9]): 1000 mg/kg/day | LOAEL (rat [9]): > 1000 mg/kg/day | NEL (rat [9]): 500 mg/kg/day | NOAEL (rat [9]): ≥ 1000 mg/kg/day | LEL (mouse [10]; [30]): 1000 mg/kg/day | NEL (mouse [10]; [30]): 500 mg/kg/day | LOAEL (mouse [10]; [31]): > 1000 mg/kg/day | NOAEL (mouse [10]; [31]): ≥ 1000 mg/kg/day | LOAEL (rat [11]; [32]): 250 mg/kg/day | NOAEL (rat [11]; [32]): < 250 mg/kg/day | LEL (rat [11]; [33]): 250 mg/kg/day | NEL (rat [11]; [33]): < 250 mg/kg/day | LOAEL (rat [12]; [34]): 1000 mg/kg/day | LEL (rat [12]; [35]): 125 mg/kg/day | NEL (rat [12]; [35]): < 125 mg/kg/day | NOAEL (rat [12]; systemic / in life observation / clinical signs / lethargy + systemic / in life observation / body weight / body weight + systemic / in life…): 500 mg/kg/day | LEL (mouse [13]; [34]): 250 mg/kg/day | LOAEL (mouse [13]; [34]): 250 mg/kg/day | NEL (mouse [13]; [36]): 125 mg/kg/day | NOAEL (mouse [13]; [36]): 125 mg/kg/day | LEL (mouse [14]): 250 mg/kg/day | LOAEL (mouse [14]): 250 mg/kg/day | NEL (mouse [14]): < 250 mg/kg/day | NOAEL (mouse [14]): < 250 mg/kg/day
